Data taken from PMC8213057, “Targeting ALK2: An Open Science Approach to Developing Therapeutics for the Treatment of Diffuse Intrinsic Pontine Glioma” (Journal of Medicinal Chemistry, 2020).
Values joined by “and” are separate entries in the source; they are usually repeats but may differ in a detail not shown here. Identical values can stand only once.

How the values were obtained:
[1] = biological target: DYRK1/DYRK1A (Homo sapiens, UniProt Q13627); experiment: biochemical; conditions: read-out: % enzyme activity, 1 μM; Run 1, Run 2
[2] = biological target: PKCg (Homo sapiens, UniProt P05129); conditions: 1 μM; Run 1, Run 2
[3] = biological target: CDK17/cyclin Y (PCTK2) (Homo sapiens, UniProt Q00537); experiment: biochemical; conditions: read-out: % enzyme activity, 1 μM; Run 1, Run 2
[4] = biological target: CDK2/Cyclin A1 (Homo sapiens, UniProt P24941); experiment: biochemical; conditions: read-out: % enzyme activity, 1 μM; Run 1, Run 2
[5] = biological target: T1, CHK1 (Homo sapiens, UniProt O14757); experiment: biochemical; conditions: read-out: % enzyme activity, 1 μM; Run 1, Run 2
T1 sequence (O14757 1-476): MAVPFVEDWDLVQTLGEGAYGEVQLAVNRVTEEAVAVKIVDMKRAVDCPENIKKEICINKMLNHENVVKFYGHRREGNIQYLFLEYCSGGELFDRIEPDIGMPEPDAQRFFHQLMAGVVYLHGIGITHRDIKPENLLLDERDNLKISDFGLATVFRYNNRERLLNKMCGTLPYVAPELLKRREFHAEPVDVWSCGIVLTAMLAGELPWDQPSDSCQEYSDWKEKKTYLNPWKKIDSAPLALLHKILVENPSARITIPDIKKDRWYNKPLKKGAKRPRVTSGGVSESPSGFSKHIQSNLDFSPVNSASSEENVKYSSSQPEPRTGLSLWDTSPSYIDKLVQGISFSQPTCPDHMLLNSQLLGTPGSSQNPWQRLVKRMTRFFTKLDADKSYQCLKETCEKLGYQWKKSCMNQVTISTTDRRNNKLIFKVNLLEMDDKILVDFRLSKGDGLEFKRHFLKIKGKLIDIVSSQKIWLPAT

[6] = biological target: RSK2 (Homo sapiens, UniProt P51812); conditions: 1 μM; Run 1, Run 2
[7] = biological target: LOK/STK10 (Homo sapiens, UniProt O94804); conditions: 1 μM; Run 1, Run 2
Sequence of LOK/STK10 (O94804 whole entry): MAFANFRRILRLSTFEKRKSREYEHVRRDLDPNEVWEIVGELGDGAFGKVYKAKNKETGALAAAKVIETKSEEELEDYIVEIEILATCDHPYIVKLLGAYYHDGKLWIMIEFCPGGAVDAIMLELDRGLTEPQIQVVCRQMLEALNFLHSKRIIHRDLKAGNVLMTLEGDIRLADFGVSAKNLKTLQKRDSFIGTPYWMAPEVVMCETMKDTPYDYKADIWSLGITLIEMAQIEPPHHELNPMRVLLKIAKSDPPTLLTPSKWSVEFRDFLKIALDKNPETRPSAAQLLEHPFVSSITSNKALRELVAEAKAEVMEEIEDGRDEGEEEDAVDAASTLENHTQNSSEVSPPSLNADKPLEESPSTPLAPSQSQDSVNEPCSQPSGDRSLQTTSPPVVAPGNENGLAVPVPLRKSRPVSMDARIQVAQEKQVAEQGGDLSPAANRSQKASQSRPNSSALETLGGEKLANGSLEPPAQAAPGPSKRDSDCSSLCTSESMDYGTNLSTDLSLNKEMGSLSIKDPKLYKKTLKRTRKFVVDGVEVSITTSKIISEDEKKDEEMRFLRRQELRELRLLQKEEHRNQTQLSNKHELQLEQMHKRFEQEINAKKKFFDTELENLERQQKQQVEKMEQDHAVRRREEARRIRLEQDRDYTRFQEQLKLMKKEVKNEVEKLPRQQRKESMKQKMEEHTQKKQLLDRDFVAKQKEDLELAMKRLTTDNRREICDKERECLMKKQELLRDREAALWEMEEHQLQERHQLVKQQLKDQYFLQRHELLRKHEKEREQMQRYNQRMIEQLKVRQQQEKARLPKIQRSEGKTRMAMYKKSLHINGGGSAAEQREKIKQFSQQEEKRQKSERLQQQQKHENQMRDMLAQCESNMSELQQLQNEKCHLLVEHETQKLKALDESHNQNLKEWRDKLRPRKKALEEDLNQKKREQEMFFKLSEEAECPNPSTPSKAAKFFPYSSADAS

[8] = biological target: T2, KSR1 (Homo sapiens, UniProt Q8IVT5); experiment: biochemical; conditions: read-out: % enzyme activity, 1 μM; Run 1, Run 2
T2 sequence (Q8IVT5 1-923): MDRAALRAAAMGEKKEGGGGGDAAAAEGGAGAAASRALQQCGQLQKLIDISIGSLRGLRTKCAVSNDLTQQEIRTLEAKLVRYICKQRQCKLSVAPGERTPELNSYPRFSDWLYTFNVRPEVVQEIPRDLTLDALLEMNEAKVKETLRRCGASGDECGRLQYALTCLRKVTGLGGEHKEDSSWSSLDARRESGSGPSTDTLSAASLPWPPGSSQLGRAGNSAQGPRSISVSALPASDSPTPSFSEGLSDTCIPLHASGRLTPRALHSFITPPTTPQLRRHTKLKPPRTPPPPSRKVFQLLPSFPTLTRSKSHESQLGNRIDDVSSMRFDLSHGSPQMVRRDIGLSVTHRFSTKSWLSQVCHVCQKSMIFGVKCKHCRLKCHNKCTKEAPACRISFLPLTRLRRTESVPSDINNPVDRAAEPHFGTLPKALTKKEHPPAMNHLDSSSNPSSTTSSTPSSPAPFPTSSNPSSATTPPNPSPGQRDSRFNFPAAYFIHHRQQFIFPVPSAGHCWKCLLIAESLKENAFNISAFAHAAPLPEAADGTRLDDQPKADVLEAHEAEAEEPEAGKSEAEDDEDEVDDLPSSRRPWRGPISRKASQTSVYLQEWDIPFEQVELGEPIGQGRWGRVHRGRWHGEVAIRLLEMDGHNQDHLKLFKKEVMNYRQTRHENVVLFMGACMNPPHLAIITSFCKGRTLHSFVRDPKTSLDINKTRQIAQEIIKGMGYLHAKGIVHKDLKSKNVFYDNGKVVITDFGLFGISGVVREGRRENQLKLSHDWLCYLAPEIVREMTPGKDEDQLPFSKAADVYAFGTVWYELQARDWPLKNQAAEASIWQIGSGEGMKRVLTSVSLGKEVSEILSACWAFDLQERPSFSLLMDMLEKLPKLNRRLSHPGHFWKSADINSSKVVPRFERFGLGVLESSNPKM

[9] = biological target: CDC7/DBF4 (Homo sapiens, UniProt O00311); experiment: biochemical; conditions: read-out: % enzyme activity, 1 μM; Run 1, Run 2
Sequence of CDC7/DBF4 (O00311 whole entry): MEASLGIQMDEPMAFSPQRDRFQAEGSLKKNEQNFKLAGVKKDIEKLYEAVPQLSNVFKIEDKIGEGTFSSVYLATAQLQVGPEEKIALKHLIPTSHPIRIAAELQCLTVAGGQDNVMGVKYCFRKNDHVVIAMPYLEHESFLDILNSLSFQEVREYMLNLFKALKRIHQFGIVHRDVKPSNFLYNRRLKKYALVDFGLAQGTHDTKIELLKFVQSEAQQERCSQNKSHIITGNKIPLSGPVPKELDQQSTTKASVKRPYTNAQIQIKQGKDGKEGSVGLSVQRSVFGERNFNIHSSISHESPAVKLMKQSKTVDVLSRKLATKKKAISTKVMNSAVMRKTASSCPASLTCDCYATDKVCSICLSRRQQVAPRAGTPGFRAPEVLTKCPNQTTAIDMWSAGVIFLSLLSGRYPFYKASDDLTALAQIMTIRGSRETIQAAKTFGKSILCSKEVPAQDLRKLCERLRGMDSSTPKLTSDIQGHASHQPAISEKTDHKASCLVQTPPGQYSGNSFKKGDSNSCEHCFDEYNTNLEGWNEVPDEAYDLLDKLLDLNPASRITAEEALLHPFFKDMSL
Sequence of CDC7/DBF4 (Q9UBU7 whole entry partner): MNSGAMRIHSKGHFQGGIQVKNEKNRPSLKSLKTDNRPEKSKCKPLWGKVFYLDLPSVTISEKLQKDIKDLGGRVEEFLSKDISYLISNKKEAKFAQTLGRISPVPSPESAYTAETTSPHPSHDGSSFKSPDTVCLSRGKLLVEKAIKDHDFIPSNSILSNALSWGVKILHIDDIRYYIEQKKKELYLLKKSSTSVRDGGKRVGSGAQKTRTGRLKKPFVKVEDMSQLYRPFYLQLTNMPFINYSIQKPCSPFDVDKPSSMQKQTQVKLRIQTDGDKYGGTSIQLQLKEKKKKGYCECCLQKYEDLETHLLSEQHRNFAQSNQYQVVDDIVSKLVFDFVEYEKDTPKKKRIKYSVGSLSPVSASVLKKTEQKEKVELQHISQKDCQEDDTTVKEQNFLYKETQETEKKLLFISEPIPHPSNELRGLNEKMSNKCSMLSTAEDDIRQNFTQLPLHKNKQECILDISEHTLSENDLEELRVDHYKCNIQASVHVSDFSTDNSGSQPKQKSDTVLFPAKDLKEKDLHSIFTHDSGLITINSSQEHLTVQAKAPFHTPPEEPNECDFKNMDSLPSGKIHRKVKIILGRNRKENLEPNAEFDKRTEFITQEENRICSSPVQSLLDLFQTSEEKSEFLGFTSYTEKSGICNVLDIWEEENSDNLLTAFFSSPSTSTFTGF

[10] = biological target: T3, SNARK/NUAK2 (Homo sapiens, UniProt Q9H093); experiment: biochemical; conditions: read-out: % enzyme activity, 1 μM; Run 1, Run 2
T3 sequence (Q9H093 1-628): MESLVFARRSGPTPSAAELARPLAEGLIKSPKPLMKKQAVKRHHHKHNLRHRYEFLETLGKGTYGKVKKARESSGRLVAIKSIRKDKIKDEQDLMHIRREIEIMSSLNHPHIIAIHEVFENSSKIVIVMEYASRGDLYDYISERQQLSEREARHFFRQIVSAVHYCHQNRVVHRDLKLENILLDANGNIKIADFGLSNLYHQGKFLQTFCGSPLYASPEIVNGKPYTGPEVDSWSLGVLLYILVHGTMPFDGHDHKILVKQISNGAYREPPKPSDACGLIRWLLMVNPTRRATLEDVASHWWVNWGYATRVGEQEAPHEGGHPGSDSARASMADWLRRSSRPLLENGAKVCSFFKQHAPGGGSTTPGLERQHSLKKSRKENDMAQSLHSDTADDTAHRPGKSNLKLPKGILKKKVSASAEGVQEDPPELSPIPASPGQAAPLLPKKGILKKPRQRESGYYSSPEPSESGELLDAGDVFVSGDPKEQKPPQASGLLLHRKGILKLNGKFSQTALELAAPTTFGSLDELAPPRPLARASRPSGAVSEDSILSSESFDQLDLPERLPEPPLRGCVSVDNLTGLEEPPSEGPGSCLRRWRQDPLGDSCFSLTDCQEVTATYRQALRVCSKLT

[11] = biological target: MSK2/RPS6KA4 (Homo sapiens, UniProt O75676); conditions: 1 μM; Run 1, Run 2
Sequence of MSK2/RPS6KA4 (O75676 whole entry): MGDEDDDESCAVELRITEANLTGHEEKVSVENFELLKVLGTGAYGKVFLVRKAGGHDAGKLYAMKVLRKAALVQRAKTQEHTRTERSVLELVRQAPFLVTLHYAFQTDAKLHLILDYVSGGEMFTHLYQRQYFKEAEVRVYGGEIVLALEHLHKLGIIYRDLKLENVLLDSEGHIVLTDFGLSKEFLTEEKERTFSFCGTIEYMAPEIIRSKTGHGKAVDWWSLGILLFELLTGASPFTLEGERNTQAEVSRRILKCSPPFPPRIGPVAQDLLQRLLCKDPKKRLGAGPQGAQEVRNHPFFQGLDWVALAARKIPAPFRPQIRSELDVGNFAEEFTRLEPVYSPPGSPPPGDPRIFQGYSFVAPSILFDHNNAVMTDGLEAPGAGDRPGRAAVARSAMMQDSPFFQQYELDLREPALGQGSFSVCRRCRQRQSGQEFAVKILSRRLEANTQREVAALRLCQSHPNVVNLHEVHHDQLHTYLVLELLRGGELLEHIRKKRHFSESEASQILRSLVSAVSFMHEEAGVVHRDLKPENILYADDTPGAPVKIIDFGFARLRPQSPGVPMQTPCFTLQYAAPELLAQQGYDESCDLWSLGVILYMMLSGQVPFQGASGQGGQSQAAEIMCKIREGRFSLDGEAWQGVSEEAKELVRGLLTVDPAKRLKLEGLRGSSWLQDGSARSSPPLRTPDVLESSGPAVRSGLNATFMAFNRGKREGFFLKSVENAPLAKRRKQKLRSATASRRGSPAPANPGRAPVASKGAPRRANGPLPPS

[12] = biological target: IGF1R (Homo sapiens, UniProt P08069); conditions: 1 μM; Run 1, Run 2
[13] = tested on: ALK6/BMPR1B
[14] = biological target: CAMK1d (Homo sapiens, UniProt Q8IU85); experiment: biochemical; conditions: read-out: % enzyme activity, 1 μM; Run 1, Run 2
Sequence of CAMK1d (Q8IU85 whole entry): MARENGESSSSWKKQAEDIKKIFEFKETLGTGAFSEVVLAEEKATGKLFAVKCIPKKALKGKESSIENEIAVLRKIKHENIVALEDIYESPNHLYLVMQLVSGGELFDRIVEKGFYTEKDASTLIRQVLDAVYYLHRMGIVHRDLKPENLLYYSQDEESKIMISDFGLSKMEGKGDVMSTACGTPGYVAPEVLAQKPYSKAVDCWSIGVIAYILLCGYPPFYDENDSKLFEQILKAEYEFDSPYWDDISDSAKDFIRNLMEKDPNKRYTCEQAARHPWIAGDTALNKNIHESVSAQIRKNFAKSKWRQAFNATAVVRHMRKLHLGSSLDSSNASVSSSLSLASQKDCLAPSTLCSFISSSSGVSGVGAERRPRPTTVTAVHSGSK

[15] = biological target: CDK6/cyclin D3 (Homo sapiens, UniProt Q00534); conditions: 1 μM; Run 1, Run 2
Sequence of CDK6/cyclin D3 (Q00534 whole entry): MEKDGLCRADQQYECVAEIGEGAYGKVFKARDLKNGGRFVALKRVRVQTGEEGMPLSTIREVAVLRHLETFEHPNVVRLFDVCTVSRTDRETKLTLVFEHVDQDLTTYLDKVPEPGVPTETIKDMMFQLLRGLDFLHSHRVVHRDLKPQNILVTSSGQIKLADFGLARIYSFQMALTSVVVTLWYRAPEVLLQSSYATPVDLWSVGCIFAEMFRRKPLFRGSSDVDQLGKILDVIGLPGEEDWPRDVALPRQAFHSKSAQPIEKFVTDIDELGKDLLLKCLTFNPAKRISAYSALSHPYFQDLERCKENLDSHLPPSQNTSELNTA
Sequence of CDK6/cyclin D3 (P30281 whole entry partner): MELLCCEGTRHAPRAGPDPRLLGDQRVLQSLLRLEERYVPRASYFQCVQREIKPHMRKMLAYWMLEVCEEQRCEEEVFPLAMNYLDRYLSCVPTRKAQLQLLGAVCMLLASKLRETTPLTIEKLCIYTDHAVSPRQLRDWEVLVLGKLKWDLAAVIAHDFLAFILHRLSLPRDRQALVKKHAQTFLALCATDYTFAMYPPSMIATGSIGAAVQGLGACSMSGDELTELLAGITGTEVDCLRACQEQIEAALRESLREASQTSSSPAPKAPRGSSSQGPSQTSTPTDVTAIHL

SMILES	remaining activity at 1 µM [1] [%]	% enzyme activity [2] [%]	remaining activity at 1 µM [3] [%]	remaining activity at 1 µM [4] [%]	remaining activity at 1 µM [5] [%]	% enzyme activity [6] [%]	% enzyme activity [7] [%]	remaining activity at 1 µM [8] [%]	remaining activity at 1 µM [9] [%]	remaining activity at 1 µM [10] [%]	% enzyme activity [11] [%]	% enzyme activity [12] [%]	% enzyme activity at 1 μM [13]	remaining activity at 1 µM [14] [%]	% enzyme activity [15] [%]
COc1cc(-c2cncc(-c3ccc(N4C[C@@H](C)N(C)[C@@H](C)C4)cc3)c2C)cc(F)c1C(N)=O [Compound 26c, 2-Fluoro-6-methoxy-4-(4-methyl-5-(4-((3R,5S)-3,4,5-trimethylpiperazin-1-yl)phenyl)pyridin-3-yl)benzamide]	62.4	96.41	101	98.2	117	101.06	68.53	96.3	94.2	94	92.01	94.80	30.2% and 30.1%	99.9	102.19
COc1cc(-c2cncc(-c3ccc(N4CCN(C)CC4)cc3)c2C)cc(F)c1C(N)=O [Compound 26a, 2-Fluoro-6-methoxy-4-(4-methyl-5-(4-(4-methylpiperazin-1-yl)phenyl)pyridin-3-yl)benzamide]	43.3	96.27	96.1	99.9	98.2	99.92	51.51	94.5	92.2	91.6	96.56	98.31	18.2% and 17%	98.5	86.25
